| melting point | Structure (SMILES) |
| --- | --- |
| 103 to 105 °C | CCOc1cc([C@@H](CCO)N2Cc3cccc(NC(=O)C4CC4)c3C2=O)ccc1OC [Example 1, (1R)-Cyclopropanecarboxylic acid {2-[1-(3-ethoxy-4-methoxy-phenyl)-3-hydroxy-propyl]-3-oxo-2,3-dihydro-1H-Isoindol-4-yl}-amide] |
| 136 to 138 °C | CCOc1cc([C@@H](CCNO)N2Cc3cccc(NC(=O)C4CC4)c3C2=O)ccc1OC [Example 6, (3R)-Cyclopropanecarboxylic acid {2-[1-(3-ethoxy-4-methoxy-phenyl)-3-hydroxyamino-propyl]-3-oxo-2,3-dihydro-1H-Isoindol-4-yl}-amide] |
| 102 to 104 °C | CCOc1cc([C@@H](CCN(O)C=O)N2Cc3cccc(NC(=O)C4CC4)c3C2=O)ccc1OC [Example 7, (1R)-Cyclopropanecarboxylic acid {2-[1-(3-ethoxy-4-methoxy-phenyl)-3-(N-formyl-N-hydroxy-amino)-propyl]-3-oxo-2,3-dihydro-1H-Isoindol-4-yl}-amide] |
| 79 to 81 °C | CCOc1cc([C@@H](CCN(O)C=O)N2Cc3cccc(NC(C)=O)c3C2=O)ccc1OC [Example 8, (1R)—N-{2-[1-(3-Ethoxy-4-methoxy-phenyl)-3-(N-formyl-N-hydroxy-amino)-propyl]-3-oxo-2,3-dihydro-1H-Isoindol-4-yl}-acetamide] |
| 81 to 83 °C | CCOc1cc([C@@H](CCN(O)C=O)N2Cc3cccc(NC(=O)C(C)C)c3C2=O)ccc1OC [Example 9, (1R)—N-{2-[1-(3-Ethoxy-4-methoxy-phenyl)-3-(N-formyl-N-hydroxy-amino)-propyl]-3-oxo-2,3-dihydro-1H-Isoindol-4-yl}-Isobutyramide] |
| 96 to 98 °C | CCOc1cc([C@@H](CCN(O)C=O)N2C(=O)c3cccc(NC(C)=O)c3C2=O)ccc1OC [Example 10, (1R)—N-{2-[1-(3-Ethoxy-4-methoxy-phenyl)-3-(N-formyl-N-hydroxy-amino)-propyl]-1,3-dioxo-2,3-dihydro-1H-Isoindol-4-yl}-acetamide] |
| 137 to 139 °C | CCOc1cc([C@@H](CCN(O)C(N)=O)N2Cc3cccc(NC(=O)C(C)C)c3C2=O)ccc1OC [Example 12, (1R)—N-{2-[3-(N-Aminocarbonyl-N-hydroxy-amino)-1-(3-ethoxy-4-methoxy-phenyl)-propyl]-3-oxo-2,3-dihydro-1H-Isoindol-4-yl}-Isobutyramide] |
| 123 to 125 °C | CCOc1cc(C(CCN(OC(C)=O)C(C)=O)N2Cc3cccc(NC(=O)C4CC4)c3C2=O)ccc1OC (stereo not drawn) [Example 14] |
| 142 to 144 °C | CCOc1cc([C@@H](CC(C)N(O)C=O)N2Cc3cccc(NC(=O)C4CC4)c3C2=O)ccc1OC (stereo partly drawn) [Example 15, (1R)-Cyclopropanecarboxylic acid {2-[1-(3-ethoxy-4-methoxy-phenyl)-3-(formyl-hydroxy-amino)-butyl]-3-oxo-2,3-dihydro-1H-Isoindol-4-yl}-amide] |

| Structure (SMILES) | melting point |
| --- | --- |
| CCOc1cc(C(CCN(OC(=O)OC(C)(C)C)C(=O)OC(C)(C)C)N2Cc3cccc(NC(=O)C4CC4)c3C2=O)ccc1OC [Example 4, (3R)-(tert-Butoxy)-N-{3-[7-(cyclopropylcarbonylamino)-1-oxoisoindolin-2-yl]-3-(3-ethoxy-4-methoxyphenyl)propyl}carbonylamino(tert-butoxy)formate] | 153 to 155 °C |
| CCOc1cc(C(CCN(OC(=O)OC(C)(C)C)C(=O)OC(C)(C)C)N2Cc3cccc(N)c3C2=O)ccc1OC (stereo not drawn) [Example 5, N-[3-(7-Amino-1-oxoisoindolin-2-yl)-3-(3-ethoxy-4-methoxyphenyl)propyl](tert-butoxy)carbonylamino (tert-butoxy)formate] | 85 to 87 °C |
| CCOc1cc([C@@H](CCN(C=O)OC(C)=O)N2Cc3cccc(NC(=O)C(C)C)c3C2=O)ccc1OC [Example 11, (1R)—N-{2-[3-(N-Acetoxy-N-formyl-amino)-1-(3-ethoxy-4-methoxy-phenyl)-propyl]-3-oxo-2,3-dihydro-1H-Isoindol-4-yl}-Isobutyramide] | 72 to 74 °C |
